The structures appear in SMILES notation. Structures can show the parent of a compound that is named as a salt. Where two headings read alike, the source gives them in different places.

The term AC50 denotes the midpoint of the concentration-response curve, whichever way the signal moves. As usually defined, the IC50 is the concentration at which inhibition is half-maximal.

Common to all, as to assay type: cell-based
One assay relates to HTT mRNA. Briefly: Splicing assay (RT-qPCR) monitoring HTT canonical junction (CJ) and alternative junction (AJ) mRNA isoforms. As to conditions: A673 or K562 cells, 24 h treatment, top dose 10 uM. As for the experimental part:
Compounds described herein were used to modulate RNA transcript abundance in cells. The expression of a target mRNA was measured by detecting the formation of an exon-exon junction in the canonical transcript (CJ). A compound mediated exon-inclusion event was detected by observing an increase in formation of a new junction with an alternative exon (AJ). Real-time qPCR assays were used to detect these splicing switches and interrogate the potency of various compounds towards different target genes. A high-throughput real time quantitative PCR (RT-qPCR) assay was developed to measure these two isoforms of the mRNA (CJ and AJ) for an exemplary gene, HTT, together with a control housekeeping gene, GAPDH or GUSB or PPIA, used for normalization. Briefly, the A673 or K562 cell line was treated with various compounds described herein (e.g., compounds of Formula (I)). After treatment, the levels of the HTT mRNA targets were determined from each sample of cell lysate by cDNA synthesis followed by qPCR.
• Cells-to-CT 1-step kit: ThermoFisher A25602, Cells-to-CT lysis reagent: ThermoFisher 4391851C, TaqMan™ Fast Virus 1-Step Master Mix: ThermoFisher 4444436 • GAPDH: VIC-PL, ThermoFisher 4326317E (Assay: Hs99999905_m1)—used for K562/suspension cell lines • GUSB: VIC-PL, ThermoFisher 4326320E (Assay: Hs99999908_m1)—used for K562/suspension cell lines • PPIA: VIC-PL, ThermoFisher 4326316E (Assay: Hs99999904_m1) — used for A673/adherent cell lines
The A673 cell line was cultured in DMEM with 10% FBS. Cells were diluted with full growth media and plated in a 96-well plate (15,000 cells in 100 ul media per well). The plate was incubated at 37° C. with 5% CO2 for 24 hours to allow cells to adhere. An 11-point 3-fold serial dilution of the compounds was made in DMSO then diluted in media in an intermediate plate. Compounds were transferred from the intermediate plate to the cell plate with the top dose at a final concentration of 10 uM in the well. Final DMSO concentration was kept at or below 0.25%. The cell plate was returned to the incubator at 37° C. with 5% CO2 for an additional 24 hours.
The K562 cell line was cultured in IMDM with 10% FBS. For K562, cells were diluted with full growth media and plated in either a 96-well plate (50,000 cells in 50 uL media per well) or a 384-well plate (8,000-40,000 cells in 45 uL media per well). An 11-point 3-fold serial dilution of the compounds were made in DMSO then diluted in media in an intermediate plate. Compound was transferred from the intermediate plate to the cell plate with the top dose at a final concentration of 10 uM in the well. Final DMSO concentration was kept at or below 0.25%. Final volume was 100 uL for 96-well plate and 50 uL for 384-well plate. The cell plate was then placed in an incubator at 37° C. with 5% CO2 for 24 hours.
The cells were then gently washed with 50 uL-100 uL cold PBS before proceeding to addition of lysis buffer. 30 uL-50 uL of room temperature lysis buffer with DNAse I (and optionally RNAsin) was added to each well. Cells were shaken/mixed thoroughly at room temperature for 5-10 minutes for lysis to take place and then 3 uL-5 uL of room temperature stop solution was added and wells were shaken/mixed again. After 2-5 minutes, the cell lysate plate was transferred to ice for RT-qPCR reaction setup. The lysates could also be frozen at −80° C. for later use.
In some cases, a direct lysis buffer was used. An appropriate volume of 3× lysis buffer (10 mM Tris, 150 mM NaCl, 1.5%-2.5% Igepal and 0.1-1 U/uL RNAsin, pH 7.4) was directly added to either K562 or A673 cells in media and mixed by pipetting 3 times. The plates were then incubated at room temperature with shaking/rocking for 20-50 minutes to allow for lysis to take place. After this time, the cell lysate plate was transferred to ice to set up for the RT-qPCR reactions. The lysates could also be frozen at −80° C. for later use. […]
On the technique in general: In qPCR the cycle at which signal appears reflects the starting amount.

The next assay concerns HTT CJ mRNA. In words: Gene panel canonical junction qPCR assay, HTT. As to conditions: decrease in CJ mRNA levels, gene panel; read-out: HTT IC50. As for the experimental part:
(§1) The expression of a target mRNA was measured by detecting the formation of an exon-exon junction in the canonical transcript (CJ). A compound mediated exon-inclusion event was detected by observing an increase in formation of a new junction with an alternative exon (AJ). Real-time qPCR assays were used to detect these splicing switches and interrogate the potency of various compounds towards different target genes. A high-throughput real time quantitative PCR (RT-qPCR) assay was developed to measure these two isoforms of the mRNA (CJ and AJ) for an exemplary gene, HTT, together with a control housekeeping gene, GAPDH or GUSB or PPIA, used for normalization. Briefly, the A673 or K562 cell line was treated with various compounds described herein (e.g., compounds of Formula (I)). After treatment, the levels of the HTT mRNA targets were determined from each sample of cell lysate by cDNA synthesis followed by qPCR. The A673 cell line was cultured in DMEM with 10% FBS. Cells were diluted with full growth media and plated in a 96-well plate (15,000 cells in 100 ul media per well). The plate was incubated at 37° C. with 5% CO2 for 24 hours to allow cells to adhere. An 11-point 3-fold serial dilution of the compounds was made in DMSO then diluted in media in an intermediate plate. Compounds were transferred from the intermediate plate to the cell plate with the top dose at a final concentration of 10 uM in the well. Final DMSO concentration was kept at or below 0.25%. The cell plate was returned to the incubator at 37° C. with 5% CO2 for an additional 24 hours. The K562 cell line was cultured in IMDM with 10% FBS. For K562, cells were diluted with full growth media and plated in either a 96-well plate (50,000 cells in 50 uL media per well) or a 384-well plate (8,000-40,000 cells in 45 uL media per well). An 11-point 3-fold serial dilution of the compounds were made in DMSO then diluted in media in an intermediate plate. Compound was transferred from the intermediate plate to the cell plate with the top dose at a final concentration of 10 uM in the well. Final DMSO concentration was kept at or below 0.25%. Final volume was 100 uL for 96-well plate and 50 uL for 384-well plate. The cell plate was then placed in an incubator at 37° C. with 5% CO2 for 24 hours. The cells were then gently washed with 50 uL-100 uL cold PBS before proceeding to addition of lysis buffer. 30 uL-50 uL of room temperature lysis buffer with DNAse I (and optionally RNAsin) was added to each well. Cells were shaken/mixed thoroughly at room temperature for 5-10 minutes for lysis to take place and then 3 uL-5 uL of room temperature stop solution was added and wells were shaken/mixed again. After 2-5 minutes, the cell lysate plate was transferred to ice for RT-qPCR reaction setup. The lysates could also be frozen at −80° C. for later use. In some cases, a direct lysis buffer was used. An appropriate volume of 3× lysis buffer (10 mM Tris, 150 mM NaCl, 1.5%-2.5% Igepal and 0.1-1 U/uL RNAsin, pH 7.4) was directly added to either K562 or A673 cells in media and mixed by pipetting 3 times. The plates were then incubated at room temperature with shaking/rocking for 20-50 minutes to allow for lysis to take place. After this time, the cell lysate plate was transferred to ice to set up for the RT-qPCR reactions. The lysates could also be frozen at −80° C. for later use. To set up 10 uL RT-qPCR reactions, cell lysates were transferred to 384-well qPCR plates containing the master mix according to the table below. The plates were sealed, gently vortexed, and spun down before the run. The volumes were adjusted accordingly in some instances where the reaction was carried in 20 uL. The table below summarizes the components of the RT-qPCR reactions: The RT-qPCR reaction was performed using a QuantStudio (ThermoFisher) under the following fast cycling conditions. All samples and standards were analyzed at least in duplicate.

Another assay relates to SMN2 CJ mRNA. Briefly: Gene panel canonical junction qPCR assay, SMN2. The settings on record: decrease in CJ mRNA levels, gene panel; read-out: SMN2 IC50. As for the experimental part: as §1
Where [1] appears, read: decrease in CJ mRNA (50% response), read-out: HTT CJ AC50.
Where [2] appears, read: increase in AJ mRNA (50% response), read-out: HTT AJ AC50.

As to `Cn1cc2cc(-n3cnc4cc(N5CCNCC5)ccc4c3=O)ccc2n1` [Compound 153, 3-(2-methyl-2H-indazol-5-yl)-7-(piperazin-1-yl)quinazolin-4(3H)-one], the AC50 with HTT mRNA (setting [1]) and with HTT mRNA (setting [2]) was more than 10 µM each time. In addition, the 50% inhibitory concentration (IC50) was more than 10 µM in the assay with HTT CJ mRNA and 1 to 10 µM in the assay with SMN2 CJ mRNA.
For the molecule `Cc1cc(-c2ccc3c(=O)n(C4CCN(C)CC4)cnc3n2)cc2cn(C)nc12` [Compound 173, 7-(2,7-dimethyl-2H-indazol-5-yl)-3-(1-methylpiperidin-4-yl)pyrido[2,3-d]pyrimidin-4(3H)-one], the AC50 in the assay with HTT mRNA (setting [1]) and with HTT mRNA (setting [2]) was more than 10 µM throughout. The IC50 with HTT CJ mRNA was more than 10 µM; in the assay with SMN2 CJ mRNA, 1 to 10 µM.
With `CN1CC=C(c2ccc3c(=O)n(-c4ccc5nn(C)cc5c4)cnc3c2)CC1` [Compound 159, 7-(1-methyl-1,2,3,6-tetrahydropyridin-4-yl)-3-(2-methyl-2H-indazol-5-yl)quinazolin-4(3H)-one], the concentration at half-maximal activity (AC50) in the assay on HTT mRNA (setting [1]) and in the assay on HTT mRNA (setting [2]) was more than 10 µM throughout. The half-inhibitory concentration (IC50) with HTT CJ mRNA and in the assay on SMN2 CJ mRNA was more than 10 µM in each case.
Take `Cc1cc(-c2ccc3c(=O)n(C4CCNCC4)cnc3c2)cc2cn(C)nc12` [Compound 174, 7-(2,7-dimethyl-2H-indazol-5-yl)-3-(piperidin-4-yl)quinazolin-4(3H)-one]: the AC50 with HTT mRNA (setting [1]) and with HTT mRNA (setting [2]) was 0.1 to 1 µM each time. Also, the IC50 in the assay on HTT CJ mRNA was 0.1 to 1 µM; with SMN2 CJ mRNA, less than 0.1 µM.
Regarding `Cn1cc2cc(-n3cnc4cc(NC5CCNCC5)ccc4c3=O)ccc2n1` [Compound 162], the AC50 in the assay with HTT mRNA (setting [1]) and in the assay on HTT mRNA (setting [2]) was more than 10 µM each time. Further, the IC50 in the assay with HTT CJ mRNA and in the assay on SMN2 CJ mRNA was more than 10 µM in each case.
As to `Cn1cc2cc(-n3cnc4cc(C5=CCNCC5)ccc4c3=O)ccc2n1` [Compound 158, 3-(2-methyl-2H-indazol-5-yl)-7-(1,2,3,6-tetrahydropyridin-4-yl)quinazolin-4(3H)-one], the AC50 in the assay with HTT mRNA (setting [1]) and with HTT mRNA (setting [2]) was more than 10 µM throughout. Moreover, the IC50 in the assay with HTT CJ mRNA and in the assay with SMN2 CJ mRNA was more than 10 µM each time.
Consider `Cc1cn2nc(-c3ccc4c(=O)n(C5CCNCC5)ncc4c3)cc(C)c2n1` [Compound 186, 6-[2,8-dimethylimidazo[1,2-b]pyridazin-6-yl]-2-(piperidin-4-yl)phthalazin-1-one], for which the concentration at half-maximal activity (AC50) in the assay with HTT mRNA (setting [1]) and in the assay on HTT mRNA (setting [2]) was less than 0.1 µM throughout.
For `Cc1cn2nc(-c3ccc4c(c3)CCN(C3CCNCC3)C4=O)cc(C)c2n1` [Compound 185, 6-[2,8-dimethylimidazo [1,2-b]pyridazin-6-yl]-2-(piperidin-4-yl) -3,4-dihydroisoquinolin-1-one], the AC50 in the assay with HTT mRNA (setting [1]) lay in the range of 0.1 to 1 µM; in the assay with HTT mRNA (setting [2]) it was 1 to 10 µM.
The corresponding values for `Cc1cn2cc(-c3ccc4c(=O)n(C5CCNCC5)ncc4c3)nc2c(C)n1` [Compound 258] are 1 to 10 µM and more than 10 µM.
In the same order, the values of `Cc1cn2nc(-c3ccc4c(c3F)CCN(C3CCNCC3)C4=O)cc(C)c2n1` [Compound 188, 6-{2,8-dimethylimidazo[1,2-b]pyridazin-6-yl}-5-fluoro-2-(piperidin-4-yl)-3,4-dihydroisoquinolin-1-one] are 1 to 10 µM and 1 to 10 µM.
Turning to `Cc1cc(-c2ccc3c(=O)n(C4CC(C)(C)NC(C)(C)C4)cnc3c2)cc2cn(C)nc12` [Compound 157, 7-(2,7-dimethyl-2H-indazol-5-yl)-3-(2,2,6,6-tetramethylpiperidin-4-yl)quinazolin-4(3H)-one hydrochloride], the AC50 in the assay with HTT mRNA (setting [1]) and in the assay with HTT mRNA (setting [2]) was more than 10 µM each time. The results for the half-maximal inhibitory concentration (IC50) with HTT CJ mRNA and in the assay with SMN2 CJ mRNA were more than 10 µM and 1 to 10 µM, respectively.
On to `Cc1cc(-c2ccc3nc(N4CCN(C)CC4)[nH]c(=O)c3c2)cc2cn(C)nc12` [Compound 165, 6-(2,7-dimethyl-2H-indazol-5-yl)-2-(4-methylpiperazin-1-yl)quinazolin-4(3H)-one], for which the concentration at half-maximal activity (AC50) in the assay on HTT mRNA (setting [1]) and in the assay with HTT mRNA (setting [2]) was more than 10 µM in each case. Besides, the IC50 with HTT CJ mRNA was more than 10 µM; with SMN2 CJ mRNA it was 0.1 to 1 µM.
In the case of `Cc1cc(-c2ccc3c(=O)n(C4CCN(C)CC4)cnc3c2)cc2cn(C)nc12` [Compound 156], the half-maximal activity concentration (AC50) in the assay with HTT mRNA (setting [1]) and with HTT mRNA (setting [2]) was 1 to 10 µM throughout. Further, the IC50 in the assay on HTT CJ mRNA is 1 to 10 µM; with SMN2 CJ mRNA it was 0.1 to 1 µM.

Source of the values: patent US20230159496A1, “COMPOUNDS AND METHODS FOR MODULATING SPLICING” (REMIX THERAPEUTICS INC., priority 2020, published 2023).
